Experimental data as given in PMC8065850 (Microorganisms, 2021).
pIC50: −log10 of the molar value. Entries after “also recorded” stand apart in the source; their conditions may differ.

Legend:
SARS-CoV 3CLpro = SARS-CoV 3CLpro (Severe acute respiratory syndrome coronavirus, UniProt P0C6X7); test: biochemical; format: biochemical
SARS-CoV-2 3CLpro = SARS-CoV-2 3CLpro (Severe acute respiratory syndrome coronavirus 2, UniProt P0DTD1); test: biochemical; format: biochemical
[1] = system: SARS-CoV-2 in infected Vero cells; settings: cited from earlier work

Compound	inhibitory effect in library screening against SARS-CoV 3CLpro (in words) (SARS-CoV 3CLpro)	inhibitory effect in library screening against SARS-CoV-2 3CLpro (in words) (SARS-CoV-2 3CLpro)	pIC50 (SARS-CoV 3CLpro)	other results
CC(C)OC(=O)[C@H](C)N[P@](=O)(OC[C@H]1O[C@@H](n2ccc(=O)[nH]c2=O)[C@](C)(F)[C@@H]1O)Oc1ccccc1 [No 2-3, Sofosbuvir]	little	little	–	–
Nc1ccn([C@@H]2CS[C@H](CO)O2)c(=O)n1 [No 4-4, Lamivudine]	little	little	–	–
Cc1cccc(C)c1OCC(=O)N[C@@H](Cc1ccccc1)[C@@H](O)C[C@H](Cc1ccccc1)NC(=O)[C@H](C(C)C)N1CCCNC1=O [Lopinavir]	–	did not block the proteolytic activity	–	–
Nc1nc(NC2CC2)c2ncn([C@H]3C=C[C@@H](CO)C3)c2n1 [abacavir, Abacavir]	–	–	4.61	pIC50 (SARS-CoV-2 3CLpro): 4.90
Nc1ccn(C[C@@H](CO)OCP(=O)(O)O)c(=O)n1 [cidofovir, Cidofovir]	–	–	< 4.33	pIC50 (SARS-CoV-2 3CLpro): < 4.44
C[C@H](Cn1cnc2c(N)ncnc21)OCP(=O)(O)O [tenofovir, Tenofovir]	–	–	4.85	killing of SARS-CoV-2 in infected Vero cells [1]: kill SARS-CoV-2
CCN(CC)CCCC(C)Nc1ccnc2cc(Cl)ccc12 (centres unmarked) [No 6-5, Chloroquine]	little	little	–	–
CCN(CCO)CCCC(C)Nc1ccnc2cc(Cl)ccc12 (centres unmarked) [No 6-6, Hydroxychloroquine]	little	little	–	–
C=C1[C@H](CO)[C@@H](O)C[C@@H]1n1cnc2c(=O)[nH]c(N)nc21 [No 4-3, Entecavir]	little	little	–	–
CCCc1nn(C)c2c(=O)[nH]c(-c3cc(S(=O)(=O)N4CCN(C)CC4)ccc3OCC)nc12 [sildenafil, Sildenafil]	–	–	4.90	pIC50 (SARS-CoV-2 3CLpro): 5.08
Nc1nc(O)c2ncn(COC(CO)CO)c2n1 [No 1-3, Ganciclovir]	little	little	–	–
CC(C)c1nc(CN(C)C(=O)N[C@H](C(=O)N[C@@H](Cc2ccccc2)C[C@H](O)[C@H](Cc2ccccc2)NC(=O)OCc2cncs2)C(C)C)cs1 [ritonavir, Ritonavir]	–	did not block the proteolytic activity; also recorded: did not show clear inhibitory activity	–	–
CN1CC(=O)N2[C@H](c3ccc4c(c3)OCO4)c3[nH]c4ccccc4c3C[C@@H]2C1=O [tadalafil, Tadalafil]	did not display meaningful inhibitory activity	did not display meaningful inhibitory activity	–	–
CCC(CC)COC(=O)[C@H](C)N[P@](=O)(OC[C@H]1O[C@@](C#N)(c2ccc3c(N)ncnn23)[C@H](O)[C@@H]1O)Oc1ccccc1 [remdesivir, Remdesivir]	–	minor inhibitory activity	–	–
CC(C)(C)NC(=O)[C@@H]1CN(Cc2cccnc2)CCN1C[C@@H](O)C[C@@H](Cc1ccccc1)C(=O)N[C@H]1c2ccccc2C[C@H]1O [indinavir, Indinavir]	–	–	4.50	–
